In patent US12570642B2, “GLP-IR modulating compounds” (Gilead Sciences, Inc., priority 2021, dated 2026):

Biological target: GLP-1R (Homo sapiens, UniProt P43220)
Test: GLP-1R Activation - cAMP Assay
Assay type: cell-based
Conditions: cAMP increase in CHO cells stably expressing GLP-1R; each compound run on one of the two cAMP assays (Assay 1 or Assay 2, not specified)
How it was run: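 cAMP rise read by HTRF after 30 min agonist exposure (10-point titration, 37 °C) in HBSS/20 mM Hepes/0.1% BSA, following 1 h pre-incubation. Cells: stable GLP-1R CHO line, 1,000/well, seeded overnight. Sigmoidal fit of response vs log concentration gives EC50.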

Chain of GLP-1R (P43220 24-463): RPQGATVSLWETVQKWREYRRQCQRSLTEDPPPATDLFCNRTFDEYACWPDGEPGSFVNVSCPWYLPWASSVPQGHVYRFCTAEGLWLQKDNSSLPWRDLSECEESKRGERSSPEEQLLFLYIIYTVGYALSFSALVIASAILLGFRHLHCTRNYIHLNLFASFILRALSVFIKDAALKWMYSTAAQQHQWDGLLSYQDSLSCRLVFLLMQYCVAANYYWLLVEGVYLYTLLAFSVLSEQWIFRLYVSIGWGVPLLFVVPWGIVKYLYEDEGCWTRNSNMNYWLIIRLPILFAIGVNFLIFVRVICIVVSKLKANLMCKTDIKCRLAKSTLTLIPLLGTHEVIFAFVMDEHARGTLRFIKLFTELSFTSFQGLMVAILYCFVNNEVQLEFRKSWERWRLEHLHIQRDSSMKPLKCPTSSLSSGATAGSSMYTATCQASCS

| Compound | EC50 |
| --- | --- |
| N#Cc1ccc(COc2cccc(-c3cc(F)c(Cc4nc5ccc(C(=O)O)cc5n4[C@@H]4COC[C@@H]4OCC(F)F)cc3F)n2)c(F)c1 [Example 540, 2-(4-(6-((4-cyano-2-fluorobenzyl)oxy)pyridin-2-yl)-2,5-difluorobenzyl)-1-((3R,4R)-4-(2,2-difluoroethoxy)tetrahydrofuran-3-yl)-1H-benzo[d]imidazole-6-carboxylic acid] | 0.052 nM |
| N#Cc1ccc(COc2cccc(-c3cc(F)c(Cc4nc5ccc(C(=O)O)cc5n4[C@H]4COC[C@H]4OCC(F)F)cc3F)n2)c(F)c1 [Example 541, 2-(4-(6-((4-cyano-2-fluorobenzyl)oxy)pyridin-2-yl)-2,5-difluorobenzyl)-1-((3S,4S)-4-(2,2-difluoroethoxy)tetrahydrofuran-3-yl)-1H-benzo[d]imidazole-6-carboxylic acid] | 0.434 nM |
| COC[C@H]1COC[C@H]1n1c(Cc2cc(F)c(-c3cccc(OCc4ccc(Cl)cc4F)n3)cc2F)nc2ccc(C(=O)O)cc21 [Example 542, 2-(4-(6-((4-chloro-2-fluorobenzyl)oxy)pyridin-2-yl)-2,5-difluorobenzyl)-1-((3S,4S)-4-(methoxymethyl)tetrahydrofuran-3-yl)-1H-benzo[d]imidazole-6-carboxylic acid] | 0.033 nM |
| COC[C@H]1COC[C@H]1n1c(Cc2cc(F)c(-c3ccc(F)c(OCc4ccc(Cl)cc4F)n3)cc2F)nc2ccc(C(=O)O)cc21 [Example 543, 2-(4-(6-((4-chloro-2-fluorobenzyl)oxy)-5-fluoropyridin-2-yl)-2,5-difluorobenzyl)-1-((3S,4S)-4-(methoxymethyl)tetrahydrofuran-3-yl)-1H-benzo[d]imidazole-6-carboxylic acid] | 0.038 nM |
| COC[C@H]1COC[C@H]1n1c(Cc2cc(F)c(-c3cccc(OCc4ccc(Cl)cc4)n3)cc2F)nc2ccc(C(=O)O)cc21 [Example 544, 2-(4-(6-((4-chlorobenzyl)oxy)pyridin-2-yl)-2,5-difluorobenzyl)-1-((3S,4S)-4-(methoxymethyl)tetrahydrofuran-3-yl)-1H-benzo[d]imidazole-6-carboxylic acid] | 0.048 nM |
| CC1(C)COC[C@H]1n1c(Cc2cc(F)c(-c3cccc(OCc4cnc(-c5cnn(C(F)F)c5)cc4Cl)n3)cc2F)nc2ccc(C(=O)O)cc21 [Example 552, (S)-2-(4-(6-((4-chloro-6-(1-(difluoromethyl)-1H-pyrazol-4-yl)pyridin-3-yl)methoxy)pyridin-2-yl)-2,5-difluorobenzyl)-1-(4,4-dimethyltetrahydrofuran-3-yl)-1H-benzo[d]imidazole-6-carboxylic acid] | 0.99 nM |
| Cn1cc(-c2cc(F)c(COc3cccc(-c4cc(F)c(Cc5nc6ccc(C(=O)O)cc6n5[C@@H]5COCC5(C)C)cc4F)n3)cn2)nn1 [Example 555, (S)-2-(2,5-difluoro-4-(6-((4-fluoro-6-(1-methyl-1H-1,2,3-triazol-4-yl)pyridin-3-yl)methoxy)pyridin-2-yl)benzyl)-1-(4,4-dimethyltetrahydrofuran-3-yl)-1H-benzo[d]imidazole-6-carboxylic acid] | 0.047 nM |
| COC[C@H]1COC[C@H]1n1c(Cc2cc(F)c(-c3cccc(OCc4ccc(C(F)(F)F)cc4)n3)cc2F)nc2ccc(C(=O)O)cc21 [Example 556, 2-(2,5-difluoro-4-(6-((4-(trifluoromethyl)benzyl)oxy)pyridin-2-yl)benzyl)-1-((3S,4S)-4-(methoxymethyl)tetrahydrofuran-3-yl)-1H-benzo[d]imidazole-6-carboxylic acid] | 0.262 nM |
| CC1(C)COC[C@H]1n1c(Cc2cc(F)c(-c3ccc(F)c(OCc4ccc(F)cc4)n3)cc2F)nc2ccc(C(=O)O)cc21 [Example 557, (S)-2-(2,5-difluoro-4-(5-fluoro-6-((4-fluorobenzyl)oxy)pyridin-2-yl)benzyl)-1-(4,4-dimethyltetrahydrofuran-3-yl)-1H-benzo[d]imidazole-6-carboxylic acid] | 0.031 nM |
| CC(C)OCCn1c(Cc2cc(F)c(-c3cccc(OCc4cnc(-n5ccnn5)cc4Cl)n3)cc2F)nc2ccc(C(=O)O)cc21 [Example 561, 2-(4-(6-((4-chloro-6-(1H-1,2,3-triazol-1-yl)pyridin-3-yl)methoxy)pyridin-2-yl)-2,5-difluorobenzyl)-1-(2-isopropoxyethyl)-1H-benzo[d]imidazole-6-carboxylic acid] | 0.558 nM |
| COC(C)(C)Cn1c(Cc2cc(F)c(-c3cccc(OCc4cnc(-n5ccnn5)cc4Cl)n3)cc2F)nc2ccc(C(=O)O)cc21 [Example 563, 2-(4-(6-((4-chloro-6-(1H-1,2,3-triazol-1-yl)pyridin-3-yl)methoxy)pyridin-2-yl)-2,5-difluorobenzyl)-1-(2-methoxy-2-methylpropyl)-1H-benzo[d]imidazole-6-carboxylic acid] | 0.041 nM |

Second part, the compound after the results:

| EC50 | Compound |
| --- | --- |
| 0.121 nM | CC1(C)COC[C@H]1n1c(Cc2cc(F)c(-c3ccnc(OCc4ccc(C(F)(F)F)cc4)n3)cc2F)nc2ccc(C(=O)O)cc21 [Example 537, (S)-2-(2,5-difluoro-4-(2-((4-(trifluoromethyl)benzyl)oxy)pyrimidin-4-yl)benzyl)-1-(4,4-dimethyltetrahydrofuran-3-yl)-1H-benzo[d]imidazole-6-carboxylic acid] |
| 0.109 nM | COC[C@H]1COC[C@H]1n1c(Cc2cc(F)c(-c3ccc(F)c(OCc4ccc(C(F)(F)F)cc4)n3)cc2F)nc2ccc(C(=O)O)cc21 [Example 538, 2-(2,5-difluoro-4-(5-fluoro-6-((4-(trifluoromethyl)benzyl)oxy)pyridin-2-yl)benzyl)-1-((3S,4S)-4-(methoxymethyl)tetrahydrofuran-3-yl)-1H-benzo[d]imidazole-6-carboxylic acid] |
| 0.044 nM | COC[C@H]1COC[C@H]1n1c(Cc2cc(F)c(-c3ccc(F)c(OCc4ccc(Cl)cc4)n3)cc2F)nc2ccc(C(=O)O)cc21 [Example 545, 2-(4-(6-((4-chlorobenzyl)oxy)-5-fluoropyridin-2-yl)-2,5-difluorobenzyl)-1-((3S,4S)-4-(methoxymethyl)tetrahydrofuran-3-yl)-1H-benzo[d]imidazole-6-carboxylic acid] |
| 0.066 nM | Cn1cc(-c2ccc(COc3cccc(-c4cc(F)c(Cc5nc6ccc(C(=O)O)cc6n5[C@@H]5COCC5(C)C)cc4F)n3)cn2)nn1 [Example 550, (S)-2-(2,5-difluoro-4-(6-((6-(1-methyl-1H-1,2,3-triazol-4-yl)pyridin-3-yl)methoxy)pyridin-2-yl)benzyl)-1-(4,4-dimethyltetrahydrofuran-3-yl)-1H-benzo[d]imidazole-6-carboxylic acid] |
| 0.11 nM | CC1(C)COC[C@H]1n1c(Cc2cc(F)c(-c3cccc(OCc4ccc(-c5cnn(C(F)F)c5)cc4)n3)cc2F)nc2ccc(C(=O)O)cc21 [Example 551, (S)-2-(4-(6-((4-(1-(difluoromethyl)-1H-pyrazol-4-yl)benzyl)oxy)pyridin-2-yl)-2,5-difluorobenzyl)-1-(4,4-dimethyltetrahydrofuran-3-yl)-1H-benzo[d]imidazole-6-carboxylic acid] |
| 0.132 nM | Cn1ncc(-c2ccc(COc3cccc(-c4cc(F)c(Cc5nc6ccc(C(=O)O)cc6n5[C@@H]5COCC5(C)C)cc4F)n3)c(F)c2)n1 [Example 553, (S)-2-(2,5-difluoro-4-(6-((2-fluoro-4-(2-methyl-2H-1,2,3-triazol-4-yl)benzyl)oxy)pyridin-2-yl)benzyl)-1-(4,4-dimethyltetrahydrofuran-3-yl)-1H-benzo[d]imidazole-6-carboxylic acid] |
| 0.026 nM | Cn1nncc1-c1ccc(COc2cccc(-c3cc(F)c(Cc4nc5ccc(C(=O)O)cc5n4[C@@H]4COCC4(C)C)cc3F)n2)c(F)c1 [Example 554, (S)-2-(2,5-difluoro-4-(6-((2-fluoro-4-(1-methyl-1H-1,2,3-triazol-5-yl)benzyl)oxy)pyridin-2-yl)benzyl)-1-(4,4-dimethyltetrahydrofuran-3-yl)-1H-benzo[d]imidazole-6-carboxylic acid] |
| 0.132 nM | CC1(C)COC[C@H]1n1c(Cc2c(F)cc(-c3ccc(F)c(OCc4ccc(F)cc4)n3)c(F)c2F)nc2ccc(C(=O)O)cc21 [Example 558, (S)-1-(4,4-dimethyltetrahydrofuran-3-yl)-2-(2,3,6-trifluoro-4-(5-fluoro-6-((4-fluorobenzyl)oxy)pyridin-2-yl)benzyl)-1H-benzo[d]imidazole-6-carboxylic acid] |
| 0.195 nM | COC[C@H]1COC[C@H]1n1c(Cc2cc(F)c(-c3ccc(F)c(OCc4ccc(Cl)cc4F)c3)cc2F)nc2ccc(C(=O)O)cc21 [Example 559, 2-((3′-((4-chloro-2-fluorobenzyl)oxy)-2,4′,5-trifluoro-[1,1′-biphenyl]-4-yl)methyl)-1-((3S,4S)-4-(methoxymethyl)tetrahydrofuran-3-yl)-1H-benzo[d]imidazole-6-carboxylic acid] |
| 0.192 nM | O=C(O)c1ccc2nc(Cc3cc(F)c(-c4cccc(OCc5cnc(-n6ccnn6)cc5Cl)n4)cc3F)n(CCOC(F)F)c2c1 [Example 560, 2-(4-(6-((4-chloro-6-(1H-1,2,3-triazol-1-yl)pyridin-3-yl)methoxy)pyridin-2-yl)-2,5-difluorobenzyl)-1-(2-(difluoromethoxy)ethyl)-1H-benzo[d]imidazole-6-carboxylic acid] |
| 0.207 nM | O=C(O)c1ccc2nc(Cc3cc(F)c(-c4cccc(OCc5cnc(-n6ccnn6)cc5Cl)n4)cc3F)n(CCOC3CC3)c2c1 [Example 562, 2-(4-(6-((4-chloro-6-(1H-1,2,3-triazol-1-yl)pyridin-3-yl)methoxy)pyridin-2-yl)-2,5-difluorobenzyl)-1-(2-cyclopropoxyethyl)-1H-benzo[d]imidazole-6-carboxylic acid] |
| 2.29 nM | CO[C@@H](C)[C@H](C)n1c(Cc2cc(F)c(-c3cccc(OCc4ccc(Cl)cc4F)n3)cc2F)nc2ccc(C(=O)O)cc21 [Example 564, 2-(4-(6-((4-chloro-2-fluorobenzyl)oxy)pyridin-2-yl)-2,5-difluorobenzyl)-1-((2S,3S)-3-methoxybutan-2-yl)-1H-benzo[d]imidazole-6-carboxylic acid] |
